Measured values reported in the PolyMetriX glass transition set.
± gives the standard deviation of the reports.

SMILES | glass transition temperature [°C]
*OC(=O)C(C)NC(=O)CCCCCCCC(=O)NC(C)C(=O)OC1COC2C(*)COC12 (repeat unit) | 46.00
*CC(*)OC(=O)OC([2H])([2H])[2H] (repeat unit) | 55.00
*CC(C)(C)CS(=O)(=O)CC(C)(C)COC(=O)c1ccc(C(=O)O*)cc1 (repeat unit) | 105.00
*CC(*)(F)C(=O)OCC (repeat unit) | 94.00
*CCCCOCC(O)CN(CC(O)CO*)c1ccc(N(C)C)cc1 (repeat unit) | 31.00
*c1cccc(Oc2ccc(P(=O)(c3ccccc3)c3ccccc3)c(Oc3cccc(-n4c(=O)c5cc6c(=O)n(*)c(=O)c6cc5c4=O)c3)c2)c1 (repeat unit) | 251.00
*COc1ccc(C(=C(Cl)Cl)c2ccc(O*)cc2)cc1 (repeat unit) | 108.00
*Oc1cccc(C(F)(F)C(F)(F)C(F)(F)c2cccc(OC(*)=O)c2)c1 (repeat unit) | 46.00
*CC(*)OC(=O)c1cccc(OC)c1 (repeat unit) | 44.00
*c1cccc(S(=O)(=O)NCCNS(*)(=O)=O)c1 (repeat unit) | 107.00
*CCN(CCOC(=O)NCC1(C)CC(NC(=O)O*)CC(C)(C)C1)c1ccc(/N=N/c2ccc([N+](=O)[O-])cc2)cc1 (repeat unit) | 137.00
*C1C(=O)OC(=O)C1C1C2CC(C(=O)OC(C)CC)C(C2)C1* (repeat unit) | 175.00
*CCCCCCCCOC(=O)Nc1ccc(Cc2ccc(NC(=O)O*)cc2)cc1 (repeat unit) | 79.00
*CCOC(=O)CCC(=O)O* (repeat unit) [Poly(ethylene succinate)] | -8.63 ± 3.5
*Oc1cccc(C(=O)OCC(F)(F)C(F)(F)C(F)(F)COC(=O)c2cccc(*)c2)c1 (repeat unit) | 20.00
*Nc1ccc(Cc2ccc(NC(=O)c3cc(NC(=O)c4ccccc4)cc(C(*)=O)c3)cc2)cc1 (repeat unit) | 285.00
*CCCN(Cc1ccccc1)C(=O)S* (repeat unit) | 27.00
*Cc1ccc(C[n+]2ccc(-c3cc[n+](*)cc3)cc2)cc1 (repeat unit) | 95.00

SMILES | glass transition temperature [°C]
*CC(*)n1ccc2ccccc21 (repeat unit) | 19.00
*CC(O)COc1ccc(C(C)(C)c2ccc(OCC(O)COc3c(C)cc(C(C)(C)c4cc(C)c(O*)c(C)c4)cc3C)cc2)cc1 (repeat unit) | 100.00
*CC(*)(C)C (repeat unit) [Poly(isobutene)] | -74 ± 3.6
*OC1C(C)(C)C(OC(=O)C2CCC(C(*)=O)CC2)C1(C)C (repeat unit) | 169.00
*Oc1ccc(C2(c3ccc(OC(*)=O)c(Cl)c3)CCCCC2)cc1Cl (repeat unit) | 179.00
*c1cccc(P(=O)(c2cccc(-n3c(=O)c4cc5c(=O)n(*)c(=O)c5c(-c5ccccc5)c4c3=O)c2)c2cc(C(F)(F)F)cc(C(F)(F)F)c2)c1 (repeat unit) | 300.00
*CC(*)C(=O)OCCCCOc1ccc(-c2ccc(C#N)cc2)cc1 (repeat unit) | 30.00
*CC(*)(F)C(=O)OCC(Cl)(Cl)Cl (repeat unit) | 127.00
*CCOCCOCCOCCOCCOCCOCCOCCOCCOCCOC(=O)c1ccc(-c2ccc(-c3ccc(C(=O)O*)cc3)cc2)cc1 (repeat unit) | 40.00
*CCC[Si](*)(C)CCC[Si](C)(C)C (repeat unit) | -46.00
*O[Si](*)(C)CCCCCCCCCCCOc1ccc(/C=C/c2ccc(OCCCC)cc2)cc1 (repeat unit) | -33.00
*Oc1c(C)cc(*)cc1C (repeat unit) | 212.00
*CC(*)C(=O)Oc1cccc(C)c1 (repeat unit) | 24.50
*Oc1ccc(CC(NC(=O)Cc2ccc(OC(=O)CCCC(*)=O)cc2)C(=O)OCCCCCCCC)cc1 (repeat unit) | 38.00
*O[Si](*)(C)CCCOc1ccc(/N=N/c2ccc(S(=O)(=O)O)cc2)cc1 (repeat unit) | 9.20
*CC(*)c1ccc(C(=O)OCCN(C)C)cc1 (repeat unit) | 91.00
*CCCCCCOc1ccc(CCc2ccc(O*)cc2C)cc1 (repeat unit) | 17.90

Results, then the molecule that gave them:

glass transition temperature [°C] | SMILES
269.00 | *c1cc(C)c(Oc2ccc(S(=O)(=O)c3ccc(Oc4cc(C)c(C5(*)OC(=O)c6ccccc65)cc4C)cc3)cc2)cc1C (repeat unit)
246.00 | *C(=O)c1ccc2c(c1)C(=O)N(c1ccc(Sc3ccc(N4C(=O)c5ccc(*)cc5C4=O)cn3)nc1)C2=O (repeat unit)
215.00 | *c1ccc(Oc2cccc(Oc3ccc(N4C(=O)C5CCC(C6CCC7C(=O)N(*)C(=O)C7C6)CC5C4=O)cc3)c2)cc1 (repeat unit)
241.00 | *C(=O)c1ccc(Oc2ccc(S(=O)(=O)c3ccc(Oc4ccc(C(=O)c5ccc6c(c5)C(=O)N(c5ccc(Oc7ccc(N8C(=O)c9ccc(*)cc9C8=O)cc7)cc5)C6=O)cc4)cc3)cc2)cc1 (repeat unit)
154.00 | *Oc1ccc(C(C)(C)c2ccc(OC(=O)Sc3ccc(C(C)(C)c4ccc(SC(*)=O)cc4)cc3)cc2)cc1 (repeat unit)
62.00 | *C(=O)OCCCCCCCCCOC(=O)c1ccc(N2C(=O)c3ccc(*)cc3C2=O)cc1 (repeat unit)
278.00 | *C(=O)Nc1c(C)cc(Cc2cc(C)c(NC(=O)c3ccc4c(c3)C(=O)N(c3ccc(/N=N/c5ccc(OC(F)(F)F)cc5)c(N5C(=O)c6ccc(*)cc6C5=O)c3)C4=O)c(C)c2)cc1C (repeat unit)
275.00 | *c1ccc(Oc2cc3ccccc3cc2Oc2ccc(N3C(=O)c4ccc(S(=O)(=O)c5ccc6c(c5)C(=O)N(*)C6=O)cc4C3=O)cc2)cc1 (repeat unit)
175.00 | *Oc1ccc(C(c2ccc(Oc3ccc(C(=O)c4ccc(*)cc4)cc3)cc2)(C(F)(F)F)C(F)(F)F)cc1 (repeat unit)
182.00 | *c1ccc2c(c1)C(=O)N(c1ccc(OC(CCCCCC)COc3ccc(N4C(=O)c5ccc(C(*)(C(F)(F)F)C(F)(F)F)cc5C4=O)cc3)cc1)C2=O (repeat unit)
145.00 | *CC(O)COc1ccc(S(=O)(=O)c2ccc(OCC(O)COc3c(C)cc(S(=O)(=O)c4cc(C)c(O*)c(C)c4)cc3C)cc2)cc1 (repeat unit)
266.00 | *Oc1ccc(C(=O)Nc2ccc(C(c3ccc(NC(=O)c4ccc(OC(=O)c5ccc(C(*)=O)cc5)cc4)cc3)(C(F)(F)F)C(F)(F)F)cc2)cc1 (repeat unit)
135.00 | *CCCCCCCN1C(=O)c2ccc(-c3ccc(-c4ccc5c(c4)C(=O)N(*)C5=O)cc3)cc2C1=O (repeat unit)
302.50 ± 11 | *c1ccc(Oc2ccc(C(c3ccc(Oc4ccc(-n5c(=O)c6cc7c(=O)n(*)c(=O)c7cc6c5=O)cc4)cc3)(C(F)(F)F)C(F)(F)F)cc2)cc1 (repeat unit)
302.00 | *c1ccc(-c2ccc(N3C(=O)c4ccc(-c5ccc6c(c5)C(=O)N(*)C6=O)cc4C3=O)c(C)c2)cc1C (repeat unit)
100.00 | *Oc1cccc(Oc2ccc(C(=O)O)c(C(=O)Nc3ccc(Oc4ccc(-c5ccc(Oc6ccc(NC(=O)c7cc(*)ccc7C(=O)O)cc6)cc5)cc4)cc3)c2)c1 (repeat unit)
362.50 ± 25 | *c1ccc(C(c2ccc(-n3c(=O)c4cc5c(=O)n(*)c(=O)c5cc4c3=O)cc2)(C(F)(F)F)C(F)(F)F)cc1 (repeat unit)
255.00 | *c1ccc(Oc2ccc(C3(c4ccc(Oc5ccc(N6C(=O)c7ccc(Oc8ccc(C9(c%10ccc(Oc%11ccc%12c(c%11)C(=O)N(*)C%12=O)cc%10)CCC(c%10ccccc%10)CC9)cc8)cc7C6=O)cc5)cc4)CC4CC3C3CCCC43)cc2)cc1 (repeat unit)
360.00 | *C(=O)Oc1ccc(OC(=O)c2ccc3c(c2)C(=O)N(C2CCC(N4C(=O)c5ccc(*)cc5C4=O)CC2)C3=O)cc1 (repeat unit)
137.00 | *Oc1cc(C(=O)c2ccccc2)c(Oc2ccc(*)cc2)cc1C(=O)c1ccccc1 (repeat unit)
280.00 | *C(=O)OCCOC(=O)c1ccc(N2C(=O)c3ccc(*)cc3C2=O)cc1 (repeat unit)
179.00 | *Oc1ccc(C(c2ccc(Oc3ccc(C(=O)c4ccc(C(C)(C)c5ccc(C(=O)c6ccc(*)cc6)cc5)cc4)cc3)cc2)(C(F)(F)F)C(F)(F)F)cc1 (repeat unit)
166.00 | *c1ccc2c(c1)C(=O)N(c1ccc(OCCOCCOCCOc3ccc(N4C(=O)c5ccc(C(*)(C(F)(F)F)C(F)(F)F)cc5C4=O)cc3)cc1)C2=O (repeat unit)
163.00 | *Oc1ccc(C(C)(C)c2ccc(C(C)(C)c3ccc(Oc4ccc(C(=O)Nc5ccc(NC(=O)c6ccc(*)cc6)cc5)cc4)cc3)cc2)cc1 (repeat unit)
77.00 | *C(=O)OCCCCCCCOC(=O)c1ccc(N2C(=O)c3ccc(*)cc3C2=O)cc1 (repeat unit)
224.00 | *c1cccc(C(=O)c2ccc(Oc3ccc(N4C(=O)c5ccc(Oc6ccc7c(c6)C(=O)N(*)C7=O)cc5C4=O)cc3C(F)(F)F)cc2)c1 (repeat unit)
77.00 | *CC(*)(C)C(=O)OCCCCOc1ccc(OC(=O)c2ccc(-c3ccc(OC)cc3)cc2)cc1 (repeat unit)
292.00 | *C(=O)c1ccc2c(c1)C(=O)N(c1cccc(Nc3nc(Nc4cccc(N5C(=O)c6ccc(*)cc6C5=O)c4)nc(-c4ccccc4)n3)c1)C2=O (repeat unit)
165.00 | *Oc1ccc(OC(=O)c2ccc(-c3ccc(C(*)=O)cc3)cc2-c2ccccc2)c2ccccc12 (repeat unit)
260.00 | *C(=O)c1ccc2c(c1)C(=O)N(c1ccc(Oc3cccc(-c4cc(-c5ccccc5)cc(-c5cccc(Oc6ccc(N7C(=O)c8ccc(*)cc8C7=O)cc6)c5)n4)c3)cc1)C2=O (repeat unit)
